Reference: ChEMBL document CHEMBL1201862, “PubChem BioAssay data set” (2004)
The source made the active and inactive calls.

Assays:
[1] = target: T1, CAAX prenyl protease 2 (Saccharomyces cerevisiae S288c, UniProt Q03530); type: biochemical
T1 sequence (Q03530 whole entry): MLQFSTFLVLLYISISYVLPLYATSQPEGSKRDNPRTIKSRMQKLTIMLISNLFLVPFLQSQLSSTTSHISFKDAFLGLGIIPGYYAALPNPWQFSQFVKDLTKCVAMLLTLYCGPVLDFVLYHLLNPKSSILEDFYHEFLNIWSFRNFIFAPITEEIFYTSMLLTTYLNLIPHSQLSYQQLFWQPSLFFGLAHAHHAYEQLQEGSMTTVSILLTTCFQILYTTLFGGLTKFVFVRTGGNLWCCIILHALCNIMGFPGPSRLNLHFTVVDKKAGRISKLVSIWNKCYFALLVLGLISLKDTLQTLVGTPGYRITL

[2] = target: Trypsin (Sus scrofa, UniProt P00761); assay: porcine trypsin inhibitors, dose response, selectivity assay for Rce1 protease inhibitor project, biochemical, quenched peptide fluorescence, cherry-pick (AID 488789)
Sequence of Trypsin (P00761 whole entry): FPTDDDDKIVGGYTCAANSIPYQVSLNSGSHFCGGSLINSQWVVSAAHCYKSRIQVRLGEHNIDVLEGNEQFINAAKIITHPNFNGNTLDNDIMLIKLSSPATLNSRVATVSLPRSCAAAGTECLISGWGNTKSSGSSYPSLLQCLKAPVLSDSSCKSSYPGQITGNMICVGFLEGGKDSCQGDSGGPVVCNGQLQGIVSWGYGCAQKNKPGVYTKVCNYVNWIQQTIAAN

[3] = target: T2, Short transient receptor potential channel 4 (Mus musculus, UniProt Q9QUQ5); assay: mouse TRPC4 channel inhibitors, dose response, cell-based, HEK293 TRPC4/mu-opioid, Fluo-4 calcium (AID 434942); type: functional;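 further: potency of inhibitors blocking the TRPC4 calcium response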
T2 sequence (Q9QUQ5 whole entry): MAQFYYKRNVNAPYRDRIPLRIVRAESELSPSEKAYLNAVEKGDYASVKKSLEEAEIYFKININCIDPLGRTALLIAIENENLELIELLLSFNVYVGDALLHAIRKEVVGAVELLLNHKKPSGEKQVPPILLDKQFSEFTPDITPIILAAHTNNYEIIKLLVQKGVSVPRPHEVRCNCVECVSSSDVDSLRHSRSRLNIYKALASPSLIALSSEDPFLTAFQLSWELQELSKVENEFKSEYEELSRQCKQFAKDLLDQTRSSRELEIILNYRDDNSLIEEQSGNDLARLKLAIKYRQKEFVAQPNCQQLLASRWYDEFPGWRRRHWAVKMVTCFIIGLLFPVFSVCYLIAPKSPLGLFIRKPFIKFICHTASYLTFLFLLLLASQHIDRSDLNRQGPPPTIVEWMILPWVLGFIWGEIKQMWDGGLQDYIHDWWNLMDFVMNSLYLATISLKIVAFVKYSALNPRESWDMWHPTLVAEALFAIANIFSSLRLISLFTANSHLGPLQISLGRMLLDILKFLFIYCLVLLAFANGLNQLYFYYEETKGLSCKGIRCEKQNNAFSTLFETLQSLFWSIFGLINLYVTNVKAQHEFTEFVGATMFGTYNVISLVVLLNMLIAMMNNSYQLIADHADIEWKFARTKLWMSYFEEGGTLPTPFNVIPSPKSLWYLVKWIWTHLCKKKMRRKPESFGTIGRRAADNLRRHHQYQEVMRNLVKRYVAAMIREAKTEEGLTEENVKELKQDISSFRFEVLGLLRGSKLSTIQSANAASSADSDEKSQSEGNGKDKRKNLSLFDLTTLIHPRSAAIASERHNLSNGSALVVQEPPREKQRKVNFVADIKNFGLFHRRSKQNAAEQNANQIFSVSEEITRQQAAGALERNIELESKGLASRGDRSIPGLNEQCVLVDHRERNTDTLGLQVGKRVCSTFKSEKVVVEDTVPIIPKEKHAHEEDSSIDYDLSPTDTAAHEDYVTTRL

[4] = target: T3, Carboxy-terminal domain RNA polymerase II polypeptide A small phosphatase 1 (Homo sapiens, UniProt Q9GZU7); assay: inhibitors of CTDSP1, concentration-response testing, biochemical assay, absorbance-based, actives from ultra-high-throughput screening (AID 540297); type: functional
T3 sequence (Q9GZU7 whole entry): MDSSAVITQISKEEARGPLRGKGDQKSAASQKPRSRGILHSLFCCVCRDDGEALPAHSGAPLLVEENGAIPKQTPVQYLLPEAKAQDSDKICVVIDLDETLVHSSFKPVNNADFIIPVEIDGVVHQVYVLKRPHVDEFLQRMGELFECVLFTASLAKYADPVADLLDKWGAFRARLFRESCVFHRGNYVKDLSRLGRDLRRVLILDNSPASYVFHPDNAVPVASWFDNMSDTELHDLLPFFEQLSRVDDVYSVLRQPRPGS

[5] = target: DNA dC->dU-editing enzyme APOBEC-3A (Homo sapiens, UniProt P31941); assay: Dose Response confirmation of small molecule APOBEC3A DNA Deaminase Inhibitors via a fluorescence-based single-stranded DNA deaminase assay. [Related pubchem assays (depositor defined):AID493011, AID493024]; type: functional
Sequence of DNA dC->dU-editing enzyme APOBEC-3A (P31941 whole entry): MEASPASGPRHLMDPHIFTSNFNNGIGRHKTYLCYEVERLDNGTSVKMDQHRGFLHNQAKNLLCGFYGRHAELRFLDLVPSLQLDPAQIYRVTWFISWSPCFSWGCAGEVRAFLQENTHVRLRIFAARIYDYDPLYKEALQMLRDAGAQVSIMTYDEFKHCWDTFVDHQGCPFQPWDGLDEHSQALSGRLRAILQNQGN

[6] = target: T4, DNA dC->dU-editing enzyme APOBEC-3G (Homo sapiens, UniProt Q9HC16); type: functional
T4 sequence (Q9HC16 whole entry): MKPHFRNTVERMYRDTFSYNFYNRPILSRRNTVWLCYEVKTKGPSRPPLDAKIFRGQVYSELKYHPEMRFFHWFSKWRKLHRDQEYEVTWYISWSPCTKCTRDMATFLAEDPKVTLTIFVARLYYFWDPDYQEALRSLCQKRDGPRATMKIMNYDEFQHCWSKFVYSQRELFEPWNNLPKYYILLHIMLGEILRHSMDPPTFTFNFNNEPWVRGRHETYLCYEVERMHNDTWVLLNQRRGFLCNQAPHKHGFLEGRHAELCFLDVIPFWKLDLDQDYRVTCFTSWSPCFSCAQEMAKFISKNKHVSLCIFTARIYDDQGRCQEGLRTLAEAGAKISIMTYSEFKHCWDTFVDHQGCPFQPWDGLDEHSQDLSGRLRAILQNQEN

[7] = target: T5, Calpain-2 catalytic subunit (Sus scrofa, UniProt P43367); assay: pig calpain II inhibitor potency, dose response, biochemical, fluorogenic peptide substrate (AID 1420); type: functional
T5 sequence (P43367 whole entry): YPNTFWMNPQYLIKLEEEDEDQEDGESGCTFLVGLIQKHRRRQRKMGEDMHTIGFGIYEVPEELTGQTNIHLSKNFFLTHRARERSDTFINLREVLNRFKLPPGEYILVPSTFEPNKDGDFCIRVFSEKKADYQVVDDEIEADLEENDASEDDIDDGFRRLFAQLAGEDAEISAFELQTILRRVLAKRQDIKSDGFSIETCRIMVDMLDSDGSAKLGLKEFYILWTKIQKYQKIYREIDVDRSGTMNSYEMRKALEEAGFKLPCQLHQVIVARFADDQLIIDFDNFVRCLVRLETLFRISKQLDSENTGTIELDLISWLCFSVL

[8] = cytotoxicity in HPDE-C7 cells, cell-based, fluorescence, HTS (AID 430); type: functional; conditions: Homo sapiens
[9] = cytotoxicity in KRAS-transformed pancreatic duct cells, primary screen, cell-based, fluorescence, HTS (AID 431); type: functional; conditions: Homo sapiens;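 further: cell line used: HPDE-C7K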
[10] = cells; type: functional
[11] = target: T6, Mannose-6-phosphate isomerase (Homo sapiens, UniProt P34949); assay: human PMI inhibitors, high substrate, primary screen, biochemical, fluorescence intensity, high mannose 6-phosphate (AID 1220)
T6 sequence (P34949 whole entry): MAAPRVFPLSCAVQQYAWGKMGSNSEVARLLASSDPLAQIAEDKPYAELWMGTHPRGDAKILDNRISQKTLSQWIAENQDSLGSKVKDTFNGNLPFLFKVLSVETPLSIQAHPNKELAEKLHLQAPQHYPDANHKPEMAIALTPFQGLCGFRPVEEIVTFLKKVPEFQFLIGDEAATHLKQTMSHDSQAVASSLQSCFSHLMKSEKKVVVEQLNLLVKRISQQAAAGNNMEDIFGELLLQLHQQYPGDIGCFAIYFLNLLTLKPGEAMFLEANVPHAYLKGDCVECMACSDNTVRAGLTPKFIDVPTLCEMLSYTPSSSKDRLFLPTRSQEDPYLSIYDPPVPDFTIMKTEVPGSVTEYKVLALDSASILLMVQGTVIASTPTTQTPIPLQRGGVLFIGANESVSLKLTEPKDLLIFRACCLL

[12] = target: T7, Leucine aminopeptidase (Plasmodium falciparum 3D7, UniProt Q8IL11); assay: P. falciparum M17LAP inhibitors, primary screen, biochemical, fluorogenic H-Leu-NHMec substrate, 1536-well (AID 1619); type: functional
T7 sequence (Q8IL11 whole entry): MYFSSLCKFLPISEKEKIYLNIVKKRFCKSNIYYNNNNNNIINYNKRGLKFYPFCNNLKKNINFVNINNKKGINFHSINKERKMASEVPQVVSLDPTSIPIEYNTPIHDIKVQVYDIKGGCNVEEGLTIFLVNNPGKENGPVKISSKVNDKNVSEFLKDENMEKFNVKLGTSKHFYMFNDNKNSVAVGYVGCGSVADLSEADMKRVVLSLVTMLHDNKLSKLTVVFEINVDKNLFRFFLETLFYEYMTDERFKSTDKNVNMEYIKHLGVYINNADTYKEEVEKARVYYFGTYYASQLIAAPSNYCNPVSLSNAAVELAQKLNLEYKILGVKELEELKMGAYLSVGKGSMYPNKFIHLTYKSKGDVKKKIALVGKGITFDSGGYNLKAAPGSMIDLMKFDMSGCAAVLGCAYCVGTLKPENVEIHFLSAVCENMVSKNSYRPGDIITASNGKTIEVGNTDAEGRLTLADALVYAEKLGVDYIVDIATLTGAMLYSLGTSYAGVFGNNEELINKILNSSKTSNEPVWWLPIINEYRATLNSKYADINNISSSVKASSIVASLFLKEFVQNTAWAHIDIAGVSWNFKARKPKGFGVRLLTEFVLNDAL

[13] = target: Glucose-6-phosphate 1-dehydrogenase (Homo sapiens, UniProt P11413); assay: human G6PD enzyme inhibitors, dose response, selectivity assay for P. falciparum G6PD inhibitor project, biochemical, fluorescence (AID 504792); type: functional
[14] = cells; type: functional, cell-based
[15] = cells; type: functional, cell-based; remark: listed apart in the source
[16] = target: T4, DNA dC->dU-editing enzyme APOBEC-3G; assay: Dose Response confirmation of small molecule APOBEC3G DNA Deaminase Inhibitors via a fluorescence-based single-stranded DNA deaminase assay. [Related pubchem assays (depositor defined):AID493012, AID493028]; type: functional
[17] = microbe, parasite or virus in culture; type: functional; conditions: Mycobacterium tuberculosis
[18] = target: Peroxisome proliferator-activated receptor gamma/Nuclear receptor coactivator 3 (Homo sapiens, UniProt P37231); type: functional;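 further: agonist potency for raising coactivator recruitment to the receptor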
Sequence of Peroxisome proliferator-activated receptor gamma/Nuclear receptor coactivator 3 (P37231 whole entry): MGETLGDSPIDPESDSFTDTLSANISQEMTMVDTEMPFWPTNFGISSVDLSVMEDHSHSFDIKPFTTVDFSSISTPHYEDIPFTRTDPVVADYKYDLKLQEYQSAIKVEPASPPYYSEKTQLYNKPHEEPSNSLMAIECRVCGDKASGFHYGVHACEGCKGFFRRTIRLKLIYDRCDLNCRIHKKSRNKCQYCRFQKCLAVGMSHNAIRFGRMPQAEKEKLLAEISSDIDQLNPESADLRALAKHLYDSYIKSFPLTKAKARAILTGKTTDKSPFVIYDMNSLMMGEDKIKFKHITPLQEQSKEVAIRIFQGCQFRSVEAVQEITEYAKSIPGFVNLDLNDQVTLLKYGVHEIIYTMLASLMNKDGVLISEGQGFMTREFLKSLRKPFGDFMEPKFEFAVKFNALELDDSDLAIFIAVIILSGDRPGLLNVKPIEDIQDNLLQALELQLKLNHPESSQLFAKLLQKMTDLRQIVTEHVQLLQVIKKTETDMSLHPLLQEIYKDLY
Sequence of Peroxisome proliferator-activated receptor gamma/Nuclear receptor coactivator 3 (Q9Y6Q9 whole entry, further chain): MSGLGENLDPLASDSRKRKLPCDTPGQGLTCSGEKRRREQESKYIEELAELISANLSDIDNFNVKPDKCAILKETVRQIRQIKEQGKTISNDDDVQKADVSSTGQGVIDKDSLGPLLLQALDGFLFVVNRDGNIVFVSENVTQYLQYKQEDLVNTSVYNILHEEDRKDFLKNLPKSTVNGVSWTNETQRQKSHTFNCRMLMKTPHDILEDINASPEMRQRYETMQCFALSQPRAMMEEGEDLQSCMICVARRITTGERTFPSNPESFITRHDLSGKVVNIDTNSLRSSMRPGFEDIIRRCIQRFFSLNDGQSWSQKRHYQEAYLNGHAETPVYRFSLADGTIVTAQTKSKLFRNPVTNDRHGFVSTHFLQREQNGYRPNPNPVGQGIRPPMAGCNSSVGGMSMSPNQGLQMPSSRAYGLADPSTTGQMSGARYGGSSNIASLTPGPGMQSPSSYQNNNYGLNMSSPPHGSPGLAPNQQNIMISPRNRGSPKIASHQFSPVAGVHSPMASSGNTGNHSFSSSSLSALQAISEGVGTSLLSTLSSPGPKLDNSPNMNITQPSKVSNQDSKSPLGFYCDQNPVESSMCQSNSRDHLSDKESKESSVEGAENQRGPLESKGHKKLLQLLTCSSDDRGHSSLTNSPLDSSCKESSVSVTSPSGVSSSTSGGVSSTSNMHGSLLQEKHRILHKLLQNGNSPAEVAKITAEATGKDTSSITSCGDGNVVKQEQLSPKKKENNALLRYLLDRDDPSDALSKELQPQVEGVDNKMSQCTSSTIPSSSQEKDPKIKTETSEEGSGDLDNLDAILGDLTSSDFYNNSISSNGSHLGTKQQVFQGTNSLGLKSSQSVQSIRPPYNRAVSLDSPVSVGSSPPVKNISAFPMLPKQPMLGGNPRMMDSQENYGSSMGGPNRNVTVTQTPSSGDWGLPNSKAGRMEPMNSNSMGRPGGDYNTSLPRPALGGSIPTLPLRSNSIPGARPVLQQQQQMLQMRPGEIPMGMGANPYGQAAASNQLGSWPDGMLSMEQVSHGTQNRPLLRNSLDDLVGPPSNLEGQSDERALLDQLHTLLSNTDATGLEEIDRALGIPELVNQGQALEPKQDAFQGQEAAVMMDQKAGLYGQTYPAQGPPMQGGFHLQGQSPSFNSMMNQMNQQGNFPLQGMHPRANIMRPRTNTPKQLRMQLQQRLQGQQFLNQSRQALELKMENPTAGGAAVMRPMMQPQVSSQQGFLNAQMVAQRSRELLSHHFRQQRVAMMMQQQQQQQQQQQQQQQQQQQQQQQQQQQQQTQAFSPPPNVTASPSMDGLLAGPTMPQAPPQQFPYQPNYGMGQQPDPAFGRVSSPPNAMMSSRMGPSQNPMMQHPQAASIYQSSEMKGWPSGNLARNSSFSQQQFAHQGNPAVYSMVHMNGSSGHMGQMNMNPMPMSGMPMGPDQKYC

[19] = target: Peroxisome proliferator-activated receptor gamma/Nuclear receptor coactivator 1 (Homo sapiens, UniProt P37231); type: functional;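 further: agonist potency as compounds enhance coactivator SRC-1 recruitment to PPARgamma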
[20] = target: Peroxisome proliferator-activated receptor gamma/Nuclear receptor coactivator 2 (Homo sapiens, UniProt P37231); type: functional;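 further: agonist potency for raising coactivator recruitment to the receptor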
Sequence of Peroxisome proliferator-activated receptor gamma/Nuclear receptor coactivator 2 (P37231 whole entry): as the sequence (P37231 whole entry) above
Sequence of Peroxisome proliferator-activated receptor gamma/Nuclear receptor coactivator 2 (Q15596 whole entry, further chain): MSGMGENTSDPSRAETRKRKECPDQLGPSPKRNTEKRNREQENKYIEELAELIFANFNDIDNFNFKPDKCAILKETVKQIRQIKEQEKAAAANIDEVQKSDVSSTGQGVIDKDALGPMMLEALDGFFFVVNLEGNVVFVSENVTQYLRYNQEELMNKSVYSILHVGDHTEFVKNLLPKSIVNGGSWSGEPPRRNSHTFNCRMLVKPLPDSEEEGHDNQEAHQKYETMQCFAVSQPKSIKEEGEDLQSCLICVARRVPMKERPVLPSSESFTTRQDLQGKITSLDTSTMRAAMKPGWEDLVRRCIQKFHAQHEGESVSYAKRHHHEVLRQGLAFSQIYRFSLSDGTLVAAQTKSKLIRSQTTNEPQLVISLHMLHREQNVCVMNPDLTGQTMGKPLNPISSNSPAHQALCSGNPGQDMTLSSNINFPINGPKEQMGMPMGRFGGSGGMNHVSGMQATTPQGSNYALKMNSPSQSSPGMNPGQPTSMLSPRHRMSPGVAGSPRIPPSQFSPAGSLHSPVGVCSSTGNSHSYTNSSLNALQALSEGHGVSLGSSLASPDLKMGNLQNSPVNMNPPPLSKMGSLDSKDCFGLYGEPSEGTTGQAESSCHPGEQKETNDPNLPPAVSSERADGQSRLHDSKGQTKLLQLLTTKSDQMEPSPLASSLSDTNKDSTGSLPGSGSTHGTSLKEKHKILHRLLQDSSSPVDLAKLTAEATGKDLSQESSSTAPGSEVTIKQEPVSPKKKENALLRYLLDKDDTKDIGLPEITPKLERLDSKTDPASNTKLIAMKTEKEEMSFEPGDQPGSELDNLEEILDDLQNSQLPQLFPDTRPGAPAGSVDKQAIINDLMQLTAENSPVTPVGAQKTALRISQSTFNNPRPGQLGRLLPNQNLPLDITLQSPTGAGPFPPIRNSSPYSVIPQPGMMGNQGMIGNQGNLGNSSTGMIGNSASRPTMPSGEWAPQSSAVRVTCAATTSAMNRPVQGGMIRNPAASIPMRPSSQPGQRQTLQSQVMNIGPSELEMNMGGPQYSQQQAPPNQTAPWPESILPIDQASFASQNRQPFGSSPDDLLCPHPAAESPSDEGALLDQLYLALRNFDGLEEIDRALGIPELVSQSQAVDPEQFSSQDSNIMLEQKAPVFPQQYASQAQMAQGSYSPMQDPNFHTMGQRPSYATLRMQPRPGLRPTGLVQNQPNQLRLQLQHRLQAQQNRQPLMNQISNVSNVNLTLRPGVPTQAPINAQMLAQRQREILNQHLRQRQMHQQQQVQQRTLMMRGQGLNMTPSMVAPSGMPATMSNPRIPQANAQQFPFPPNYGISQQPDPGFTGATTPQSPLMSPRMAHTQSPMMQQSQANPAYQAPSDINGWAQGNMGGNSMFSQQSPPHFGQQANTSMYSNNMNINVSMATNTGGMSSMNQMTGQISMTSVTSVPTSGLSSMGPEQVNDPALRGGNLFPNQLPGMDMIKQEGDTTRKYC

[21] = HEp-2 cell cytotoxicity, dose response, cytotoxicity control for RSV inhibitor project, HTS (AID 2410); type: functional; conditions: human respiratory syncytial virus
[22] = cytotoxicity toward NIH3T3 fibroblasts, dose response, counter-screen, cell-based, ATP luminescence, mouse fibroblasts (AID 2010); type: functional;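 further: cells exposed to compound for about 90 hours before reading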
[23] = inhibitors of intracellular T. cruzi replication, confirmation, NIH3T3 host cells, beta-gal luminescence (AID 2044); type: functional, cell-based;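 further: intracellular parasites grown in NIH/3T3 mouse fibroblasts as host cells; luminescent beta-galactosidase reporter signal from transgenic T. cruzi replicating inside host cells; inhibitors lower the luminescence signal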
[24] = off-target signal loss in HeLa-CEM21 co-culture – HeLa F-luc CTL cells, cherry-picked, counter-screen for HIV-1 Env fusion inhibitor project, dose response (AID 652040); type: functional, cell-based;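 further: potency for signal decrease marking cytotoxic or nonspecific inhibition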

Cc1cccc2[nH]c3c(N4CCC5(CC4)OCCO5)ncnc3c12
AC50 [1]: 13.7 µM (active)
AC50 [2]: 36.5 µM (active)

Cc1oc(-c2ccoc2)nc1CN(Cc1ccccc1)CC1CC1
EC50 [3]: 4.22 µM (active)

C[N+](C)(C)CCCN(Cc1ccc2c(c1)OCO2)C(=O)NC1CCCCC1
IC50 [4]: 3.12 µM (active)
IC50 [5]: 2.43 µM (active)
IC50 [6]: 4.17 µM (active)

CNC(=O)OCc1n(C)cc[n+]1C
IC50 [5]: 1.76 µM (active)
IC50 [6]: 1.31 µM (active)

COCCn1c(C)cc(C(=O)COC(=O)CNC(=O)c2ccccc2)c1C
IC50 [7]: > 50 µM (not active)

CCOC(=O)C1=C(C)N=C(C)/C(=C(/O)OC)C1c1cccc(Cl)c1Cl (stereo not given)
EC50 [8]: 8.98 µM (active)
EC50 [9]: 10.4 µM (active)

Oc1ccc(F)c2cccnc12
IC50 [10]: 4.21 µM (active)
IC50 [11]: 7.42 µM (active)

CC(C)c1ccc(C(=O)CSc2nc[nH]n2)cc1
IC50 [12]: 33 µM (active)
IC50 [11]: 9.69 µM (active)

CCC(C)(C)c1nnc(NC(=O)C2CCN(C(=O)c3ccco3)CC2)s1
IC50 [13]: > 80 µM (inactive)
EC50 [14]: > 350 µM (not active)
EC50 [15]: > 350 µM (not active)
IC50 [16]: 25.9 µM (active)

O=c1c2ccccc2[nH]c(=S)n1CCN1CCN(Cc2ccccc2)CC1
EC50 [3]: 4.73 µM (active)

CCn1c(=N)n(CC(=O)c2ccc(Br)s2)c2ccccc21
EC50 [3]: 13.3 µM (active)

CC(C)(C)c1ccc(Cn2nnc3c(O)nc(C4CCCN(C(=O)Cc5cccs5)C4)nc32)cc1 (stereo not given)
CC50 [17]: > 40 µM (active)
EC50 [8]: 15.6 µM (active)
EC50 [9]: 18.4 µM (active)

O=C(COC(=O)Cn1cnc2ccccc2c1=O)Nc1ccccc1Sc1ccc(Cl)cc1
EC50 [3]: 1.88 µM (active)

CC(C)(C)NC(=O)c1ccc(Sc2ccccc2)c([N+](=O)[O-])c1
IC50 [7]: 11.9 µM (not active)

COC(=O)c1ccccc1NC(=O)c1cc(-c2ccc(O)cc2)on1
EC50 [18]: 33.6 µM (not active)
EC50 [19]: 24.9 µM (not active)
EC50 [20]: 31.5 µM (not active)

CCOC(=O)c1c2c(c(=S)n(-c3ccccc3)c1N)CCC2
EC50 [8]: 10.4 µM (active)
CC50 [21]: 26.4 µM (active)
IC50 [7]: 7.26 µM (not active)
EC50 [9]: 9.88 µM (active)

Cc1nc(N2CCOCC2)c2c(C)c(C(=O)Nc3ccc(C(F)(F)F)cc3)sc2n1
EC50 [22]: > 60 µM (not active)
EC50 [23]: 0.522 µM (active)
AC50 [1]: 5.99 µM (active)

COc1ccc(OCC(=O)Nc2cc(-c3nn(C)c(=O)c4ccccc34)ccc2OC)cc1
EC50 [18]: 76.6 µM (not active)
AC50 [24]: 30.3 µM (active)
EC50 [19]: 62.6 µM (not active)
EC50 [20]: 31.2 µM (not active)
